# PMC9779606, “Synthesis, Structural Characterization and Biological Activity Evaluation of Novel Cu(II) Complexes with 3-(trifluoromethyl)phenylthiourea Derivatives” (International Journal of Molecular Sciences, 2022)
# Tests used:
# [1] = system: PC3 (metastatic prostate cancer); assay: Cytotoxicity, MTT assay; format: cell-based, human; settings: 72 h, mean SD
# Protocol: (§1) MTT assay was performed as previously described. Experiments were repeated three times. […] Decreased relative MTT level means decreased cell viability.
# [2] = system: SW480 (primary colon cancer); assay: Cytotoxicity, MTT assay; format: cell-based, human; settings: 72 h, mean SD
# Protocol: as §1
# [3] = system: SW620 (metastatic colon cancer); assay: Cytotoxicity, MTT assay; format: cell-based, human; settings: 72 h, mean SD
# Protocol: as §1
# [4] = system: HaCaT (immortalized human keratinocytes); assay: Cytotoxicity, MTT assay; format: cell-based; settings: normal cells, 72 h, mean SD
# Protocol: as §1
# [5] = system: Bacillus subtilis H17 (rec+); settings: B. subtilis H17 (rec+); 256 µg per 9 mm disc (NOQ 2 µg per disc)
# Protocol: (§2) DNA-damaging activity of compounds was tested by rec-assay using two genetically modified Bacillus subtilis strains: M45 (rec^−) and H17 (rec^+). Tested compounds were dissolved in DMSO, and 10 µL of each solution was dripped onto sterile cotton discs (Rotilabo) to load 256 µg of a given compound per 9 mm disc. Discs were placed on the surface Nutrient agar plates (Difco) inoculated with 100 µL of bacterial overnight culture and incubated for 24 h at 35 °C. After incubation, the growth inhibition zones were measured. […] Results of the genotoxicity test were estimated after 18 h of incubation at 35 °C by comparing the diameter of the inhibition zone on the B. subtilis M45 (rec^−) strain with that on the B. subtilis H17 (rec^+) strain.
# [6] = system: Bacillus subtilis M45 (rec−); settings: B. subtilis M45 (rec−); 256 µg per 9 mm disc (NOQ 2 µg per disc)
# Protocol: as §2
# [7] = system: methicillin-resistant Staphylococci (MRSA, MRSE); settings: all hospital staphylococcal strains, Table 5
# S. aureus 537 = assay: MIC, hospital methicillin-resistant strains (MRSA); settings: hospital MRSA strain S. aureus 537
# S. aureus 568 = assay: MIC, hospital methicillin-resistant strains (MRSA); settings: hospital MRSA strain S. aureus 568
# S. aureus 573 = assay: MIC, hospital methicillin-resistant strains (MRSA); settings: hospital MRSA strain S. aureus 573
# S. aureus 495 = assay: MIC, hospital methicillin-resistant strains (MRSA); settings: hospital MRSA strain S. aureus 495
# S. aureus 497 = assay: MIC, hospital methicillin-resistant strains (MRSA); settings: hospital MRSA strain S. aureus 497
# S. aureus 514 = assay: MIC, hospital methicillin-resistant strains (MRSA); settings: hospital MRSA strain S. aureus 514
# S. aureus 522 = assay: MIC, hospital methicillin-resistant strains (MRSA); settings: hospital MRSA strain S. aureus 522
# S. aureus ATCC 25923 = assay: MIC, twofold serial microdilution, standard strains; settings: S. aureus ATCC 25923, standard strain
# S. epidermidis 424 = assay: MIC, hospital methicillin-resistant strains (MRSE); settings: hospital MRSE strain S. epidermidis 424
# S. epidermidis 469 = assay: MIC, hospital methicillin-resistant strains (MRSE); settings: hospital MRSE strain S. epidermidis 469
# S. epidermidis 471 = assay: MIC, hospital methicillin-resistant strains (MRSE); settings: hospital MRSE strain S. epidermidis 471
# S. epidermidis 431 = assay: MIC, hospital methicillin-resistant strains (MRSE); settings: hospital MRSE strain S. epidermidis 431
# S. epidermidis 435 = assay: MIC, hospital methicillin-resistant strains (MRSE); settings: hospital MRSE strain S. epidermidis 435
# S. aureus ATCC 6538 = assay: MIC, twofold serial microdilution, standard strains; settings: S. aureus ATCC 6538, standard strain
# S. epidermidis 436 = assay: MIC, hospital methicillin-resistant strains (MRSE); settings: hospital MRSE strain S. epidermidis 436
# S. epidermidis 513 = assay: MIC, hospital methicillin-resistant strains (MRSE); settings: hospital MRSE strain S. epidermidis 513
# S. aureus ATCC 29213 = assay: MIC, twofold serial microdilution, standard strains; settings: S. aureus ATCC 29213, standard strain
# [8] = system: S. epidermidis ATCC 12228; assay: as above; settings: S. epidermidis ATCC 12228, standard strain
# [9] = system: S. epidermidis ATCC 35984; assay: as above; settings: S. epidermidis ATCC 35984, standard strain
# E. coli ATCC 25922 = assay: as above; settings: E. coli ATCC 25922, standard strain
# P. aeruginosa ATCC 15442 = assay: as above; settings: P. aeruginosa ATCC 15442, standard strain
# P. aeruginosa ATCC 27853 = assay: as above; settings: P. aeruginosa ATCC 27853, standard strain
# C. albicans ATCC 10231 = assay: MIC, twofold serial microdilution, standard fungal strains; settings: C. albicans ATCC 10231, standard strain
# C. albicans ATCC 90028 = assay: as above; settings: C. albicans ATCC 90028, standard strain
structure (smiles),measurement,setting,value
"CC(NC(=S)[N-]c1cccc(C(F)(F)F)c1)c1ccccc1.CC(NC(=S)[N-]c1cccc(C(F)(F)F)c1)c1ccccc1.[Cu+2] (racemic) [Cu2, Copper(II) Complex with 1-(1-phenylethyl)-3-[3-(trifluoromethyl)phenyl]thiourea]",IC50,[1],89.7 ± 1.9 µM
same,IC50,[2],41.6 ± 4.3 µM
same,IC50,[3],23.3 µM
same,IC50,[4],220 ± 3.4 µM
same,"Genotoxic activity, inhibition zone diameter, H17",[5],16 mm
same,"Genotoxic activity, inhibition zone diameter, M45",[6],16 mm
same,MIC level against hospital staphylococcal strains,[7],8 to 128 µg/mL
same,MIC,S. aureus 537,8 µg/mL
same,MIC,S. aureus 568,8 µg/mL
same,MIC,S. aureus 573,8 µg/mL
same,MIC,S. aureus 495,16 µg/mL
same,MIC,S. aureus 497,16 µg/mL
same,MIC,S. aureus 514,16 µg/mL
same,MIC,S. aureus 522,16 µg/mL
same,MIC,S. aureus ATCC 25923,32 µg/mL
same,MIC,S. epidermidis 424,16 µg/mL
same,MIC,S. epidermidis 469,32 µg/mL
same,MIC,S. epidermidis 471,16 µg/mL
same,MIC,S. epidermidis 431,16 µg/mL
same,MIC,S. epidermidis 435,16 µg/mL
same,MIC,S. aureus ATCC 6538,32 µg/mL
same,MIC,S. epidermidis 436,16 µg/mL
same,MIC,S. epidermidis 513,16 µg/mL
same,MIC,S. aureus ATCC 29213,32 µg/mL
same,MIC,[8],32 µg/mL
same,MIC,[9],16 µg/mL
same,MIC,E. coli ATCC 25922,≥256 µg/mL
same,MIC,P. aeruginosa ATCC 15442,128 µg/mL
same,MIC,P. aeruginosa ATCC 27853,≥256 µg/mL
same,MIC,C. albicans ATCC 10231,128 µg/mL
same,MIC,C. albicans ATCC 90028,128 µg/mL
"FC(F)(F)c1cccc([N-]C(=S)NCCc2ccccc2)c1.FC(F)(F)c1cccc([N-]C(=S)NCCc2ccccc2)c1.O.[Cu+2] [Cu1, Copper(II) Complex with 1-(2-phenylethyl)-3-[3-(trifluoromethyl)phenyl]thiourea]",IC50,[1],100 ± 3.6 µM
same,IC50,[2],68.7 ± 3.4 µM
same,IC50,[3],62.6 ± 4.9 µM
same,IC50,[4],421 ± 5.2 µM
same,"Genotoxic activity, inhibition zone diameter, H17",[5],16 mm
same,"Genotoxic activity, inhibition zone diameter, M45",[6],16 mm
same,MIC level against hospital staphylococcal strains,[7],8 to 128 µg/mL
same,MIC,S. aureus 537,64 µg/mL
same,MIC,S. aureus 568,64 µg/mL
same,MIC,S. aureus 573,64 µg/mL
same,MIC,S. aureus 495,64 µg/mL
same,MIC,S. aureus 497,64 µg/mL
same,MIC,S. aureus 514,64 µg/mL
same,MIC,S. aureus 522,64 µg/mL
same,MIC,S. aureus ATCC 25923,64 µg/mL
same,MIC,S. epidermidis 424,128 µg/mL
same,MIC,S. epidermidis 469,64 µg/mL
same,MIC,S. epidermidis 471,64 µg/mL
same,MIC,S. epidermidis 431,128 µg/mL
same,MIC,S. epidermidis 435,64 µg/mL
same,MIC,S. aureus ATCC 6538,64 µg/mL
same,MIC,S. epidermidis 436,128 µg/mL
same,MIC,S. epidermidis 513,64 µg/mL
same,MIC,S. aureus ATCC 29213,64 µg/mL
same,MIC,[8],64 µg/mL
same,MIC,[9],64 µg/mL
same,MIC,E. coli ATCC 25922,≥256 µg/mL
same,MIC,P. aeruginosa ATCC 15442,128 µg/mL
same,MIC,P. aeruginosa ATCC 27853,128 µg/mL
same,MIC,C. albicans ATCC 10231,128 µg/mL
same,MIC,C. albicans ATCC 90028,128 µg/mL
"FC(F)(F)c1cccc([N-]C(=S)NCc2ccccc2)c1.FC(F)(F)c1cccc([N-]C(=S)NCc2ccccc2)c1.[Cu+2] [Cu3, Copper(II) Complex with 1-benzyl-3-[3-(trifluoromethyl)phenyl]thiourea]",IC50,[1],49.4 ± 2.4 µM
same,IC50,[2],38.3 ± 3.1 µM
same,IC50,[3],44.8 ± 5.6 µM
same,IC50,[4],65 ± 4.7 µM
same,"Genotoxic activity, inhibition zone diameter, H17",[5],15 mm
same,"Genotoxic activity, inhibition zone diameter, M45",[6],15 mm
same,MIC level against hospital staphylococcal strains,[7],8 to 128 µg/mL
same,MIC,S. aureus 537,64 µg/mL
same,MIC,S. aureus 568,64 µg/mL
same,MIC,S. aureus 573,64 µg/mL
same,MIC,S. aureus 495,64 µg/mL
same,MIC,S. aureus 497,64 µg/mL
same,MIC,S. aureus 514,64 µg/mL
same,MIC,S. aureus 522,64 µg/mL
same,MIC,S. aureus ATCC 25923,64 µg/mL
same,MIC,S. epidermidis 424,64 µg/mL
same,MIC,S. epidermidis 469,64 µg/mL
same,MIC,S. epidermidis 471,64 µg/mL
same,MIC,S. epidermidis 431,64 µg/mL
same,MIC,S. epidermidis 435,64 µg/mL
same,MIC,S. aureus ATCC 6538,64 µg/mL
same,MIC,S. epidermidis 436,64 µg/mL
same,MIC,S. epidermidis 513,64 µg/mL
same,MIC,S. aureus ATCC 29213,64 µg/mL
same,MIC,[8],64 µg/mL
same,MIC,[9],64 µg/mL
same,MIC,E. coli ATCC 25922,≥256 µg/mL
same,MIC,P. aeruginosa ATCC 15442,≥256 µg/mL
same,MIC,P. aeruginosa ATCC 27853,≥256 µg/mL
same,MIC,C. albicans ATCC 10231,32 µg/mL
same,MIC,C. albicans ATCC 90028,32 µg/mL
"FC(F)(F)c1cccc([N-]C(=S)Nc2cccc(Br)c2)c1.FC(F)(F)c1cccc([N-]C(=S)Nc2cccc(Br)c2)c1.[Cu+2] [Cu4, Copper(II) Complex with 1-(3-bromophenyl)-3-[3-(trifluoromethyl)phenyl] thiourea]",IC50,[1],70.1 ± 5.3 µM
same,IC50,[2],89.8 ± 2.6 µM
same,IC50,[3],69.1 ± 1.8 µM
same,IC50,[4],388 ± 4.4 µM
same,"Genotoxic activity, inhibition zone diameter, H17",[5],15 mm
same,"Genotoxic activity, inhibition zone diameter, M45",[6],17 mm
same,MIC level against hospital staphylococcal strains,[7],8 to 128 µg/mL
same,MIC,S. aureus 537,8 µg/mL
same,MIC,S. aureus 568,8 µg/mL
same,MIC,S. aureus 573,8 µg/mL
same,MIC,S. aureus 495,8 µg/mL
same,MIC,S. aureus 497,8 µg/mL
same,MIC,S. aureus 514,8 µg/mL
same,MIC,S. aureus 522,8 µg/mL
same,MIC,S. aureus ATCC 25923,8 µg/mL
same,MIC,S. epidermidis 424,8 µg/mL
same,MIC,S. epidermidis 469,8 µg/mL
same,MIC,S. epidermidis 471,8 µg/mL
same,MIC,S. epidermidis 431,8 µg/mL
same,MIC,S. epidermidis 435,8 µg/mL
same,MIC,S. aureus ATCC 6538,4 µg/mL
same,MIC,S. epidermidis 436,8 µg/mL
same,MIC,S. epidermidis 513,8 µg/mL
same,MIC,S. aureus ATCC 29213,8 µg/mL
same,MIC,[8],8 µg/mL
same,MIC,[9],8 µg/mL
same,MIC,E. coli ATCC 25922,128 µg/mL
same,MIC,P. aeruginosa ATCC 15442,≥256 µg/mL
same,MIC,P. aeruginosa ATCC 27853,128 µg/mL
same,MIC,C. albicans ATCC 10231,≥256 µg/mL
same,MIC,C. albicans ATCC 90028,≥256 µg/mL
